Test results: patent US20130143929A1, “FUNGICIDAL IMIDAZOLES” (EI DU PONT DE NEMOURS AND COMPANY, priority 2010, published 2013)
Marks after values point to notes of the source that are not given here.

What was measured:
Format in all cases: in vivo
[1] = system: Blumeria graminis f. sp. tritici (also known as Erysiphe graminis f. sp. tritici, the causal agent of wheat powdery mildew); assay: Test D: wheat powdery mildew, preventive spray on wheat seedlings, visual disease rating; settings: wheat powdery mildew, preventive spray on wheat seedlings
Summary of the method: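 Compound suspended in acetone/water (50/50) with 250 ppm Trem 014 and sprayed to run-off on wheat seedlings (200 ppm ≈ 800 g/ha), then inoculated next day with spore dust. Disease rated visually after 8 days at 20 °C as % control relative to untreated plants (0-100).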

[2] = system: Septoria tritici (the causal agent of wheat leaf blotch); assay: Test B: wheat leaf blotch, preventive spray on wheat seedlings, visual disease rating; settings: wheat leaf blotch, preventive spray on wheat seedlings
Summary of the method: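 Wheat seedlings sprayed to run-off with compound suspension (acetone/water with 250 ppm Trem 014; 200 ppm ≈ 800 g/ha, some at 40 ppm), inoculated next day with Septoria tritici spores. 48 h saturated humidity at 24 °C, then 19 days at 20 °C; visual rating, 100 = full control.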

[3] = system: Puccinia recondite f. sp. tritici (the causal agent of wheat leaf rust); assay: Test A: wheat leaf rust, preventive spray on wheat seedlings, visual disease rating; settings: wheat leaf rust, preventive spray on wheat seedlings
Summary of the method: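 Wheat seedlings were sprayed to run-off with compound suspended in acetone/water containing 250 ppm Trem 014 (200 ppm ≈ 800 g/ha; some at 40 ppm). Puccinia recondite spores were inoculated the next day. Plants were held 24 h saturated at 20° C, then 7 days at 20° C, and disease control was rated visually on a 0–100 scale against controls.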

[4] = system: Botrytis cinerea (the causal agent of tomato Botrytis); assay: Test C: tomato Botrytis, preventive spray on tomato seedlings, visual disease rating; settings: tomato Botrytis, preventive spray on tomato seedlings
Summary of the method: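 Test suspension (acetone/water with 250 ppm Trem 014; 200 ppm equivalent to 800 g/ha) sprayed to run-off on tomato seedlings; B. cinerea spores inoculated next day. After 48 h saturated humidity at 20° C then 3 days at 24° C, disease rated visually as % control relative to untreated controls (0–100).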

[5] = asterisk: 40 ppm test suspension
[6] = no asterisk (standard test suspension concentration, not 40 ppm)

SMILES | Test D rating (100 = 100% disease control, 0 = no disease control relative to the controls) [1, 5] | Test B rating (100 = 100% disease control, 0 = no disease control relative to the controls) [2, 5] | Test A rating (100 = 100% disease control, 0 = no disease control relative to the controls) [3, 5] | Test C rating (100 = 100% disease control, 0 = no disease control relative to the controls) [4, 5] | Test D rating (100 = 100% disease control, 0 = no disease control relative to the controls) [1, 6] | Test B rating (100 = 100% disease control, 0 = no disease control relative to the controls) [2, 6] | Test A rating (100 = 100% disease control, 0 = no disease control relative to the controls) [3, 6] | Test C rating (100 = 100% disease control, 0 = no disease control relative to the controls) [4, 6]
Cc1nc(Br)c(C(O)c2ccc(F)cc2F)n1-c1ccc(F)cc1Br (stereo not drawn) [compound 334] | 64* % | 100* % | 99* % | 99* % | – | – | – | –
Cc1cccc(Br)c1-n1c(C)nc(Br)c1C(O)c1ccc(F)cc1Cl (stereo not drawn) [compound 335] | 64* % | 86* % | 98* % | 35* % | – | – | – | –
Cc1cccc(Br)c1-n1c(C)nc(Cl)c1C(O)c1ccc(F)cc1Cl (stereo not drawn) [compound 336] | 90* % | 89* % | 97* % | 72* % | – | – | – | –
Cc1cccc(Br)c1-n1c(C)nc(Br)c1C(O)c1ccc(F)cc1F (stereo not drawn) [compound 337] | 0* % | 86* % | 86* % | 71* % | – | – | – | –
Cc1cccc(Br)c1-n1c(C)nc(Cl)c1C(O)c1ccc(F)cc1F (stereo not drawn) [compound 338] | 56* % | 93* % | 94* % | 70* % | – | – | – | –
Cc1cccc(F)c1-n1c(C)nc(Cl)c1C(O)c1ccc(F)cc1F (stereo not drawn) [compound 339] | 76* % | 98* % | 98* % | 86* % | – | – | – | –
Cc1cccc(F)c1-n1c(C)nc(Cl)c1C(O)c1ccc(F)cc1Cl (stereo not drawn) [compound 340] | 89* % | 100* % | 99* % | 96* % | – | – | – | –
Cc1cccc(F)c1-n1c(C)nc(Br)c1C(O)c1ccc(F)cc1F (stereo not drawn) [compound 341] | 43* % | 100* % | 94* % | 86* % | – | – | – | –
Cc1cccc(F)c1-n1c(C)nc(Br)c1C(O)c1ccc(F)cc1Cl (stereo not drawn) [compound 342] | 64* % | 100* % | 94* % | 98* % | – | – | – | –
Cc1cccc(Cl)c1-n1c(C)nc(Br)c1C(O)c1ccc(F)cc1Cl (stereo not drawn) [compound 343] | 69* % | 100* % | 96* % | 84* % | – | – | – | –
Cc1cccc(Cl)c1-n1c(C)nc(Cl)c1C(O)c1ccc(F)cc1Cl (stereo not drawn) [compound 344] | 72* % | 95* % | 99* % | 54* % | – | – | – | –
COc1ccc(C(O)c2c(Cl)nc(C)n2-c2c(F)cc(F)cc2Cl)c(F)c1 (stereo not drawn) [compound 345] | 35* % | 100* % | 100* % | 99* % | – | – | – | –
COc1ccc(C(O)c2c(Br)nc(C)n2-c2c(F)cc(F)cc2Cl)c(F)c1 (stereo not drawn) [compound 347] | 69* % | 100* % | 100* % | 82* % | – | – | – | –
COc1ccc(C(O)c2c(Br)nc(C)n2-c2c(F)cc(F)cc2Br)c(F)c1 (stereo not drawn) [compound 348] | 90* % | 100* % | 100* % | 98* % | – | – | – | –
COc1ccc(C(O)c2c(Br)nc(C)n2-c2c(F)cc(F)cc2Cl)c(Cl)c1 (stereo not drawn) [compound 349] | 90* % | 100* % | 100* % | 98* % | – | – | – | –
COc1ccc(C(O)c2c(Cl)nc(C)n2-c2c(F)cc(F)cc2Cl)c(Cl)c1 (stereo not drawn) [compound 350] | 98* % | 100* % | 100* % | 98* % | – | – | – | –
COc1ccc(C(O)c2c(Br)nc(C)n2-c2c(F)cc(F)cc2Br)c(Cl)c1 (stereo not drawn) [compound 351] | 95* % | 100* % | 100* % | 90* % | – | – | – | –
COc1ccc(C(O)c2cnc(CCl)n2-c2c(F)cc(F)cc2Br)c(Cl)c1 (stereo not drawn) [compound 352] | – | – | – | – | 95% | 100% | 100% | 99%
Cc1nc(Br)c(C(O)c2c(F)cc(F)cc2F)n1-c1ccc(Cl)cc1 (stereo not drawn) [compound 353] | – | – | – | – | 0% | 44% | 9% | 28%
COc1ccc(C(O)c2c(Br)ncn2-c2ccc(F)cc2Cl)c(Cl)c1 (stereo not drawn) [compound 354] | 0* % | 18* % | 94* % | 0* % | – | – | – | –
COc1ccc(C(O)c2c(Br)nc(Br)n2-c2ccc(F)cc2Cl)c(Cl)c1 (stereo not drawn) [compound 355] | 97* % | 100* % | 100* % | 100* % | – | – | – | –
COc1ccc(C(O)c2c(Cl)ncn2-c2ccc(F)cc2Cl)c(Cl)c1 (stereo not drawn) [compound 356] | 0* % | 19* % | 95* % | 0* % | – | – | – | –
COc1ccc(C(O)c2c(Cl)nc(Br)n2-c2ccc(F)cc2Cl)c(Cl)c1 (stereo not drawn) [compound 357] | 98* % | 100* % | 100* % | 99* % | – | – | – | –
COc1ccc(C(O)c2c(Br)nc(Cl)n2-c2ccc(F)cc2Cl)c(Cl)c1 (stereo not drawn) [compound 358] | 99* % | 100* % | 100* % | 100* % | – | – | – | –
